Source: ChEMBL document CHEMBL1140303, “Pharmacophore, drug metabolism, and pharmacokinetics models on non-peptide AT1, AT2, and AT1/AT2 angiotensin II receptor antagonists” (J Med Chem, 2005)

Key:
[1] = biological target: T1, Type-1 angiotensin II receptor (Homo sapiens) (UniProt P30556)
T1 sequence (whole entry): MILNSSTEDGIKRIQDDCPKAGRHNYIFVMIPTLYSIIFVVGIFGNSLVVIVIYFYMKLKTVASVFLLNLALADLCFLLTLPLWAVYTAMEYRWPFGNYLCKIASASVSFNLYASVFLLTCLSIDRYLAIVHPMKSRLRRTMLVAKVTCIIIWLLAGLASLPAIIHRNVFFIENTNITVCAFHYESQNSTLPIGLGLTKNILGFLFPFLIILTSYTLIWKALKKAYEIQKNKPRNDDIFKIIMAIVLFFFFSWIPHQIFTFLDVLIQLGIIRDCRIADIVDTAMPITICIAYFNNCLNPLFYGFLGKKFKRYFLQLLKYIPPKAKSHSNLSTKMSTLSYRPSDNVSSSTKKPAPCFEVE
Description: pKa value against human Angiotensin II receptor type 1

[2] = biological target: T1, Type-1 angiotensin II receptor (Homo sapiens); test: Binding affinity for AT1 receptor
[3] = Percentage modification of drug adsorbed after administration to human; type: ADME
[4] = biological target: T1, Type-1 angiotensin II receptor (Homo sapiens); test: Time to maximal plasma concentration of the drug in human
[5] = Volume distribution was determined; type: ADME, organism-based; settings: human, in vivo
[6] = Oral bioavailability; type: ADME, organism-based; settings: human, in vivo
[7] = Time required for elimination of 50% of the compound; type: ADME; settings: human
[8] = biological target: T1, Type-1 angiotensin II receptor (Homo sapiens); test: Time to maximal effect against human Angiotensin II receptor type 1

pKa [1]	Affinity [2]	Modification of adsorbed drug [3]	Tmax [4]	Vd [5]	bioavailability [6]	half-life [7]	Tmax [8]	VD [5]	SMILES
4.5	1 nM	16%	1 h	4.54 L/kg	58%	24 h	–	–	CCCc1nc2c(C)cc(-c3nc4ccccc4n3C)cc2n1Cc1ccc(-c2ccccc2C(=O)O)cc1
5	9.2 nM	20%	13 h	0.16 L/kg	13%	7 h	–	–	CCCCc1ncc(/C=C(\Cc2cccs2)C(=O)O)n1Cc1ccc(C(=O)O)cc1 [EPROSARTAN]
3.9	0.1 nM	20%	–	–	40%	11 h	4 h	–	CCOc1nc2cccc(C(=O)O)c2n1Cc1ccc(-c2ccccc2-c2nnn[nH]2)cc1
–	0.5 nM	–	–	–	–	–	–	–	CCc1nc2c(C)cc(C)nc2n1Cc1ccc(-c2ccccc2-c2nn[nH]n2)cc1
–	1.7 nM	9%	4 h	0.22 L/kg	25%	6.1 h	–	–	CCCCC(=O)N(Cc1ccc(-c2ccccc2-c2nnn[nH]2)cc1)[C@H](C(=O)O)C(C)C
–	–	75%	–	–	–	3.2 h	–	0.38 L/kg	CCCCc1nc(Cl)c(CO)n1Cc1ccc(-c2ccccc2-c2nn[nH]n2)cc1 [LOSARTAN]
–	0.4 nM	–	1 h	–	–	–	–	–	Cc1nc(C)c2c(O)cc(=O)n(Cc3ccc(-c4ccccc4-c4nn[nH]n4)cc3)c2n1
–	–	–	–	–	–	40 h	–	–	Cc1nc(C)c2c(O)cc(=O)n(Cc3ccc(-c4ccccc4-c4nnn[nH]4)cc3)c2n1 [ENOLTASOSARTAN]
4.9	6.4 nM	–	1 h	–	–	–	–	–	CCCCc1nc(Cl)c(CO)n1Cc1ccc(-c2ccccc2-c2nnn[nH]2)cc1
2.8	1.3 nM	–	3 h	–	–	6.4 h	–	–	CCCCc1nc(Cl)c(C(=O)O)n1Cc1ccc(-c2ccccc2-c2nn[nH]n2)cc1 [CARBOXYLIC ACID METABOLITE]
5	1.2 nM	2%	0.5 h	–	60%	15 h	–	–	Cc1nc(C)c2c(n1)N(Cc1ccc(-c3ccccc3-c3nnn[nH]3)cc1)C(=O)CC2 [TASOSARTAN]
4.7	1.3 nM	20%	2.5 h	0.9 L/kg	70%	21 h	–	–	CCCCC1=NC2(CCCC2)C(=O)N1Cc1ccc(-c2ccccc2-c2nnn[nH]2)cc1 [IRBESARTAN]
–	230 nM	–	–	–	–	–	–	–	CCCCc1nc(Cl)c(CO)n1Cc1ccc(-c2ccccc2C(=O)O)cc1
